Holding throughout (format): cell-based
Holding throughout (set-up): Shifts in ANAP emission, Ave: unit: nm

The target in test [1] is T1, ANAP-incorporated TRPM8 (Mus musculus, UniProt Q8R4D5, L864X).
T1 construct: expressed in transfected cells; host or cells: HEK293 cells, co-transfected with the pANAP vector
The following applies: ANAP incorporation site L864. As for the experimental part: (§1) As fluorescence emission peak of ANAP shifts to a longer wavelength in more hydrophilic environment, we measured the shift in ANAP emission peak to report conformational changes. Fluorescence properties of ANAP may also be affected by other factors such as temperature and pH[31], so we performed our ANAP experiments always at room temperature (22 ± 1°C). To control for changes in solution pH, we added 3 mM HEPES in ANAP imaging solution to buffer the pH at 7.2. We genetically integrated ANAP into a specific site on TRPM8 with special tRNA and synthetase encoded by pANAP vector (Fig. 5d).
(§2) L-ANAP methyl ester was purchased from AsisChem. pANAP vector was purchased from Addgene. ANAP was incorporated into TRPM8 by introducing a TAG amber stop codon mutation as previously reported. Briefly, after co-transfection of both TRPM8 and pANAP vectors, ANAP was directly added to the culture medium to the final concentration of 20 µM. After 1–2 days, ANAP-containing culture medium was completely changed. Cells were further cultured in ANAP-free medium overnight before experiments.
(§3) ANAP fluorescence was excited by the Ar laser with a 375/28 excitation filter, a T400lp dichroic mirror, and a 435LP emission filter on an inverted fluorescence microscope (Nikon TE2000-U) using a ×40 oil-immersion objective (NA 1.3). Emission spectrum of ANAP was imaged with an Acton SpectraPro 2150i spectrograph in conjunction with an optiMOS CCD camera (Qimaging, USA). We determined the ANAP emission peak value by fitting the emission spectrum with a skewed Gauss distribution in Igor Pro version 6.1 (WaveMatrix), and then the difference in emission peak values measured in the absence and presence of menthol was reported as the shift of ANAP emission.

In test [2] the target is T2, ANAP-incorporated TRPM8 (Mus musculus, UniProt Q8R4D5, Y787X).
T2 construct: expressed in transfected cells; host or cells: HEK293 cells, co-transfected with the pANAP vector
The following applies: ANAP incorporation site Y787, menthol activated vs resting state. As for the experimental part: as §1, §2, §3

The target in test [3] is T3, ANAP-incorporated TRPM8 (Mus musculus, UniProt Q8R4D5, F847X).
T3 construct: expressed in transfected cells; host or cells: HEK293 cells, co-transfected with the pANAP vector
The settings on record: ANAP incorporation site F847. As for the experimental part: as §1, §2, §3

Test [4] deals with T4, ANAP-incorporated TRPM8 (Mus musculus, UniProt Q8R4D5, N947X).
T4 construct: expressed in transfected cells; host or cells: HEK293 cells, co-transfected with the pANAP vector
The settings on record: ANAP incorporation site N947. As for the experimental part: as §1, §2, §3

Test [5] has as its target T5, ANAP-incorporated TRPM8 (Mus musculus, UniProt Q8R4D5, T795X).
T5 construct: expressed in transfected cells; host or cells: HEK293 cells, co-transfected with the pANAP vector
The settings on record: ANAP incorporation site T795; average shift, menthol activated vs resting state. As for the experimental part: as §1, §2, §3

Test [6] deals with T6, ANAP-incorporated TRPM8 (Mus musculus, UniProt Q8R4D5, L939X).
T6 construct: expressed in transfected cells; host or cells: HEK293 cells, co-transfected with the pANAP vector
As for the experimental part:
as §1, §2, §3

Test [7] deals with T7, ANAP-incorporated TRPM8 (Mus musculus, UniProt Q8R4D5, V791X).
T7 construct: expressed in transfected cells; host or cells: HEK293 cells, co-transfected with the pANAP vector
As for the experimental part:
as §1, §2, §3

Test [8] deals with T8, ANAP-incorporated TRPM8 (Mus musculus, UniProt Q8R4D5, N821X).
T8 construct: expressed in transfected cells; host or cells: HEK293 cells, co-transfected with the pANAP vector
The settings on record: ANAP incorporation site N821. As for the experimental part:
as §1, §2, §3

For test [9], the target named is T9, ANAP-incorporated TRPM8 (Mus musculus, UniProt Q8R4D5, D920X).
T9 construct: expressed in transfected cells; host or cells: HEK293 cells, co-transfected with the pANAP vector
As for the experimental part: as §1, §2, §3

Test [10] concerns the target T10, ANAP-incorporated TRPM8 (Mus musculus, UniProt Q8R4D5, S921X).
T10 construct: expressed in transfected cells; host or cells: HEK293 cells, co-transfected with the pANAP vector
The following applies: ANAP incorporation site S921. As for the experimental part:
as §1, §2, §3

[11] abbreviates: average shift, menthol activated vs resting state.
Setting [12] is: menthol activated vs resting state, single measurement.

Several values for one entry are separate records, joined by “and”; a condition that tells them apart may be missing. Identical values can stand only once.

Consider `CC(C)[C@@H]1CC[C@@H](C)C[C@H]1O` [menthol, (−)-menthol], for which the Shifts_ave is on record as 1.37 nm at ANAP-incorporated TRPM8 [1] (setting [11]); 1.928 nm at ANAP-incorporated TRPM8 [2] (average shift); -1.40 nm at ANAP-incorporated TRPM8 [3] (setting [11]); 0.33 nm on ANAP-incorporated TRPM8 [4] (setting [11]); 1.996 nm at ANAP-incorporated TRPM8 [5]; 2.11 nm on ANAP-incorporated TRPM8 [6] (ANAP incorporation site L939, average shift, menthol activated vs resting state). Besides, the Shifts_ave was 2.05 nm at ANAP-incorporated TRPM8 [7] (ANAP incorporation site V791, average shift, menthol activated vs resting state); 0.50 nm at ANAP-incorporated TRPM8 [8] (setting [11]); 3.47 nm at ANAP-incorporated TRPM8 [9] (ANAP incorporation site D920, average shift, menthol activated vs resting state); 1.07 nm at ANAP-incorporated TRPM8 [10] (setting [11]). For the same molecule, the Shifts in emission at ANAP-incorporated TRPM8 [1] (setting [12]) is 1.34 nm and 1.42 nm and 1.82 nm and 1.04 nm and 1.21 nm; on ANAP-incorporated TRPM8 [2] (single measurement), 1.56 nm and 1.57 nm and 2.4 nm and 1.35 nm and 2.69 nm and 2 nm; on ANAP-incorporated TRPM8 [6] (ANAP incorporation site L939, menthol activated vs resting state, single measurement), 2.38 nm and 1.56 nm and 2.39 nm; on ANAP-incorporated TRPM8 [10] (setting [12]) it was 1.34 nm and 1.13 nm and 1.09 nm and 0.99 nm and 0.8 nm. The “Emission Peak at menthol activated state” value on ANAP-incorporated TRPM8 [1] (single measurement) was 481.75 nm and 488.11 nm and 492.24 nm and 485.58 nm and 489.77 nm; at ANAP-incorporated TRPM8 [3] (single measurement), 476.81 nm and 476.91 nm and 474.92 nm and 474.75 nm and 473.64 nm; at ANAP-incorporated TRPM8 [4] (single measurement), 485.99 nm and 482.4 nm and 486.05 nm and 485.2 nm and 481.1 nm; on ANAP-incorporated TRPM8 [6] (ANAP incorporation site L939, single measurement) it was 484.67 nm and 488.02 nm and 485.09 nm; on ANAP-incorporated TRPM8 [8] (single measurement), 493.6 nm; on ANAP-incorporated TRPM8 [9] (ANAP incorporation site D920, single measurement), 488.12 nm and 482.56 nm. The “Emission Peak at menthol activated state” value at ANAP-incorporated TRPM8 [10] (single measurement) was 493.48 nm and 489.7 nm and 490.23 nm and 494.29 nm and 493.18 nm. Further, the “Shifts in ANAP emission, Ave” value at ANAP-incorporated TRPM8 [6] (ANAP at L939) was found to be 2.11; at ANAP-incorporated TRPM8 [7] (ANAP at V791), 2.05; at ANAP-incorporated TRPM8 [9] (ANAP at D920), 3.47.
